From patent US20210220374A1, “METHODS OF TREATING TE[…]” (Clarus Therapeutics, Inc., priority 2013, published 2021)
Several values for one entry are separate records, joined by “and”; a condition that tells them apart may be missing. Equal values may be shown once.

Assay: Optimal sampling time: pooled steady-state serum T data of LOT-AA and LOT-BB, 200 mg T BID as TU
Assay type: in vivo, hypogonadal men
Method: An investigation was conducted to identify a single optimal sampling time for monitoring the responsiveness of hypogonadal male patients subjects to chronic BID dosing of T using a SEDDS formulation of TU. Concentration data and derived pharmacokinetic parameters for 41 subjects from two studies (LOT-AA and LOT-BB) where subjects received 200 mg BID of T, as TU, for at least seven days were used in this investigation. Correlation and contingency table approaches were used in the investigation.
Concentration data and pharmacokinetic parameters from hypogonadal male subjects that participated in study LOT-AA and study LOT-BB were combined into a single data set. From study LOT-AA, only the information from Day 7 of Treatment 3 (8 days of treatment with 200 mg BID of T, as TU) was used. Study LOT-AA contributed data from 26 subjects treated for 7 days, and study LOT-BBBB contributed data from 15 subjects treated for 28 days with 200 mg BID of T, as TU. Combining of the data from these two groups of subjects is supported by the finding from study LOT-BBBB that T steady-state is reached in 5-7 days.
The sample collection times for these two studies both spanned a 12-hour window, but not all sample collection times were common to both studies. LOT-AA used sample collection times of 0, 1, 2, 4, 8 and 12 hours; LOT-BBBB used sample collection times of 0, 1.5, 3, 4, 5, 6, 8 and 12 hours. The current analysis used the superset of the combined set of collection times (0, 1, 1.5, 2, 3, 4, 5, 6, 8 and 12 hours). Concentration values that were missing for a subject in either of the data sets at a particular sample collection time were estimated by linear interpolation, using the existing nearest neighbor concentration values for that subject, i.e., interpolation of missing data was subject-specific.

[1] = LOT-AA subjects, estimated by linear interpolation
[2] = LOT-BB subjects, estimated by linear interpolation
[3] = targeted Cavg 300-1000, 41 subjects

Structure (SMILES): CCCCCCCCCCC(=O)O[C@H]1CC[C@H]2[C@@H]3CCC4=CC(=O)CC[C@]4(C)[C@H]3CC[C@]12C [TU, testosterone undecanoate]
- T concentration 3 hr, individual subjects [1]: 777 ng/dL and 785 ng/dL and 590 ng/dL and 433 ng/dL and 984 ng/dL and 1030 ng/dL and 1345 ng/dL and 936 ng/dL and 164 ng/dL and 183 ng/dL and 193 ng/dL and 353 ng/dL and 844 ng/dL and 700 ng/dL and 411 ng/dL and 891 ng/dL and 438 ng/dL and 271 ng/dL and 243 ng/dL and 160 ng/dL and 415 ng/dL and 308 ng/dL and 1270 ng/dL and 918 ng/dL and 837 ng/dL and 546 ng/dL
- T concentration 5 hr, individual subjects [1]: 978 ng/dL and 778 ng/dL and 686 ng/dL and 595 ng/dL and 865 ng/dL and 847 ng/dL and 1289 ng/dL and 886 ng/dL and 209 ng/dL and 248 ng/dL and 324 ng/dL and 311 ng/dL and 1065 ng/dL and 788 ng/dL and 418 ng/dL and 1012 ng/dL and 579 ng/dL and 427 ng/dL and 450 ng/dL and 205 ng/dL and 380 ng/dL and 503 ng/dL and 1533 ng/dL and 740 ng/dL and 768 ng/dL and 969 ng/dL
- T concentration 6 hr, individual subjects [1]: 856 ng/dL and 606 ng/dL and 540 ng/dL and 590 ng/dL and 690 ng/dL and 653 ng/dL and 1048 ng/dL and 703 ng/dL and 232 ng/dL and 248 ng/dL and 423 ng/dL and 314 ng/dL and 789 ng/dL and 648 ng/dL and 415 ng/dL and 1145 ng/dL and 503 ng/dL and 539 ng/dL and 622 ng/dL and 216 ng/dL and 367 ng/dL and 639 ng/dL and 1296 ng/dL and 597 ng/dL and 588 ng/dL and 1283 ng/dL
- T concentration […], individual subjects [1]: 371 ng/dL and 435 ng/dL and 297 ng/dL and 272 ng/dL and 632 ng/dL and 595 ng/dL and 845 ng/dL and 802 ng/dL and 162 ng/dL and 87 ng/dL and 150 ng/dL and 427 ng/dL and 214 ng/dL and 312 ng/dL and 454 ng/dL and 1081 ng/dL and 267 ng/dL and 241 ng/dL and 204 ng/dL and 116 ng/dL and 492 ng/dL and 237 ng/dL and 757 ng/dL and 654 ng/dL and 457 ng/dL and 403 ng/dL
- T concentration 1 hr, individual subjects (LOT-AA subjects, observed): 287 ng/dL and 251 ng/dL and 246 ng/dL and 280 ng/dL and 335 ng/dL and 170 ng/dL and 530 ng/dL and 801 ng/dL and 183 ng/dL and 57 ng/dL and 140 ng/dL and 456 ng/dL and 80 ng/dL and 153 ng/dL and 506 ng/dL and 1260 ng/dL and 314 ng/dL and 256 ng/dL and 199 ng/dL and 105 ng/dL and 547 ng/dL and 225 ng/dL and 744 ng/dL and 354 ng/dL and 187 ng/dL and 368 ng/dL
- T concentration 2 hr, individual subjects (LOT-AA subjects, observed): 454 ng/dL and 619 ng/dL and 347 ng/dL and 264 ng/dL and 928 ng/dL and 1020 ng/dL and 1160 ng/dL and 802 ng/dL and 140 ng/dL and 116 ng/dL and 159 ng/dL and 397 ng/dL and 348 ng/dL and 471 ng/dL and 402 ng/dL and 902 ng/dL and 219 ng/dL and 226 ng/dL and 208 ng/dL and 126 ng/dL and 437 ng/dL (2×) and 248 ng/dL and 770 ng/dL and 953 ng/dL and 726 ng/dL
- T concentration 1 hr, individual subjects [2]: 545 ng/dL and 531 ng/dL and 279 ng/dL (2×) and 92 ng/dL and 152 ng/dL and 161 ng/dL and 234 ng/dL and 446 ng/dL and 869 ng/dL and 248 ng/dL and 365 ng/dL and 127 ng/dL and 233 ng/dL and 271 ng/dL
- T concentration 2 hr, individual subjects [2]: 506 ng/dL and 725 ng/dL and 490 ng/dL and 149 ng/dL and 168 ng/dL and 394 ng/dL and 281 ng/dL and 812 ng/dL and 770 ng/dL and 461 ng/dL and 274 ng/dL and 166 ng/dL and 350 ng/dL and 346 ng/dL and 349 ng/dL
- T concentration 3 hr, individual subjects (LOT-BB subjects, observed): 425 ng/dL and 778 ng/dL and 723 ng/dL and 243 ng/dL and 241 ng/dL and 873 ng/dL and 360 ng/dL and 1440 ng/dL and 684 ng/dL and 908 ng/dL and 179 ng/dL and 259 ng/dL and 553 ng/dL and 461 ng/dL and 445 ng/dL
- T concentration 5 hr, individual subjects (LOT-BB subjects, observed): 486 ng/dL and 1020 ng/dL and 332 ng/dL and 125 ng/dL and 1230 ng/dL and 714 ng/dL and 1270 ng/dL and 1690 ng/dL and 514 ng/dL and 999 ng/dL and 214 ng/dL and 458 ng/dL and 1330 ng/dL and 289 ng/dL and 507 ng/dL
- T concentration 6 hr, individual subjects (LOT-BB subjects, observed): 671 ng/dL and 1660 ng/dL and 292 ng/dL and 238 ng/dL and 828 ng/dL and 773 ng/dL and 972 ng/dL and 1340 ng/dL and 593 ng/dL and 538 ng/dL and 620 ng/dL and 351 ng/dL and 1420 ng/dL and 320 ng/dL and 441 ng/dL
- T concentration […], individual subjects (LOT-BB subjects, observed): 547 ng/dL and 699 ng/dL and 374 ng/dL and 102 ng/dL and 132 ng/dL and 155 ng/dL and 242 ng/dL and 498 ng/dL and 813 ng/dL and 237 ng/dL and 321 ng/dL and 120 ng/dL and 249 ng/dL and 288 ng/dL and 301 ng/dL
- C(0), Max (serum T, N 41): 1600 ng/dL
- C(0), Mean (serum T, N 41): 363 ng/dL
- C(0), Median (serum T, N 41): 244 ng/dL
- C(0), Min (serum T, N 41): 61.0 ng/dL
- C(1), Max (serum T, N 41): 1260 ng/dL
- C(1), Mean (serum T, N 41): 338 ng/dL
- C(1), Median (serum T, N 41): 271 ng/dL
- C(1), Min (serum T, N 41): 57.3 ng/dL
- C(1.5), Max (serum T, N 41): 1081 ng/dL
- C(1.5), Mean (serum T, N 41): 391 ng/dL
- C(1.5), Median (serum T, N 41): 312 ng/dL
- C(1.5), Min (serum T, N 41): 86.6 ng/dL
- C(2), Max (serum T, N 41): 1160 ng/dL
- C(2), Mean (serum T, N 41): 466 ng/dL
- C(2), Median (serum T, N 41): 397 ng/dL
- C(2), Min (serum T, N 41): 116 ng/dL
- C(3), Max (serum T, N 41): 1440 ng/dL
- C(3), Mean (serum T, N 41): 600 ng/dL
- C(3), Median (serum T, N 41): 546 ng/dL
- C(3), Min (serum T, N 41): 160 ng/dL
- C(4), Max (serum T, N 41): 1770 ng/dL
- C(4), Mean (serum T, N 41): 745 ng/dL
- C(4), Median (serum T, N 41): 720 ng/dL
- C(4), Min (serum T, N 41): 127 ng/dL
- C(5), Max (serum T, N 41): 1690 ng/dL
- C(5), Mean (serum T, N 41): 708 ng/dL
- C(5), Median (serum T, N 41): 686 ng/dL
- C(5), Min (serum T, N 41): 125 ng/dL
- C(6), Max (serum T, N 41): 1660 ng/dL
- C(6), Mean (serum T, N 41): 673 ng/dL
- C(6), Median (serum T, N 41): 606 ng/dL
- C(6), Min (serum T, N 41): 216 ng/dL
- C(8), Max (serum T, N 41): 1910 ng/dL
- C(8), Mean (serum T, N 41): 537 ng/dL
- C(8), Median (serum T, N 41): 367 ng/dL
- C(8), Min (serum T, N 41): 225 ng/dL
- C(12), Max (serum T, N 41): 757 ng/dL
- C(12), Mean (serum T, N 41): 278 ng/dL
- C(12), Median (serum T, N 41): 222 ng/dL
- C(12), Min (serum T, N 41): 84.2 ng/dL
- Cavg, Max (serum T, N 41): 1057 ng/dL
- Cavg, Mean (serum T, N 41): 517 ng/dL
- Cavg, Median (serum T, N 41): 454 ng/dL
- Cavg, Min (serum T, N 41): 192 ng/dL
- Cmax, Max (serum T, N 41): 1910 ng/dL
- Cmax, Mean (serum T, N 41): 970 ng/dL
- Cmax, Median (serum T, N 41): 951 ng/dL
- Cmax, Min (serum T, N 41): 249 ng/dL
- Number of subjects, Cavg in range [3]: 33
- Number of subjects, Cavg too high [3]: 3
- Number of subjects, Cavg too low [3]: 5
